# Results as given in US9492460B2, “Carbazole compounds useful as bromodomain inhibitors” (Bristol-Myers Squibb Company, priority 2013, dated 2016).
# Biological target: T1, bromodomain BRD4 (44-168), BRD4 (333-460), and BRD4 (1-477 or 44-460) (Homo sapiens, UniProt O60885)
# T1 construct: BRD4(44-168), BRD4(333-460), BRD4(44-460), BRD4(1-477), O60885-1; fused on or other part: N-terminal BirA biotinylation motif, biotinylated; The TVMV-cleavable His6 tag is removed, except in some BRD4(44-460) runs detected with anti-His terbium cryptate
# Assay: Time Resolved Fluorescence Resonance Energy Transfer (TR-FRET) binding assay
# Conditions: one of the FRET assays described
row,IC50,SMILES
1,< 50 nM,"Cc1noc(C)c1-c1cc(C(N)=O)c2c3ccc(C(C)(C)O)cc3n(C[C@@]3(F)C[C@@H]4CC[C@H]3O4)c2c1 (relative stereo) [Example 225, rel-2-(dimethyl-1,2-oxazol-4-yl)-9-{[(1R,2S,4S)-2-fluoro-7-oxabicyclo[2.2.1]heptan-2-yl]methyl}-7-(2-hydroxypropan-2-yl)-9H-carbazole-4-carboxamide]"
2,< 50 nM,"Cc1noc(C)c1-c1cc(C(N)=O)c2c3cc(C(=O)N4CC(F)(F)C4)ccc3n(C(C)c3ccccc3)c2c1 (single isomer, unassigned) [Example 97, 6-((3,3-difluoro-1-azetidinyl)carbonyl)-2-(3,5-dimethyl-4-isoxazolyl)-9-(1-phenylethyl)-9H-carbazole-4-carboxamide]"
3,< 50 nM,"COc1ccc2c(c1)c1c(C(N)=O)cc(-c3c(C)noc3C)cc1n2C(C)c1ccccc1 (single isomer, unassigned) [Example 180, 2-(3,5-dimethyl-4-isoxazolyl)-6-methoxy-9-(1-phenylethyl)-9H-carbazole-4-carboxamide]"
4,< 50 nM,"Cc1noc(C)c1-c1cc(C(N)=O)c2c3ccc(C(C)(C)O)cc3n(C(c3ccccc3)C3CCOCC3)c2c1 (single isomer, unassigned) [Example 198]"
5,< 50 nM,"Cc1noc(C)c1-c1cc(C(N)=O)c2c3ccc(C(C)(C)O)cc3n(C(c3ccccc3)C3CCOCC3)c2c1 (single isomer, unassigned) [Example 199]"
6,< 50 nM,"Cc1noc(C)c1-c1cc(C(N)=O)c2c3ccc(C(C)(C)O)cc3n(C(c3ccc(F)cc3)C3CCOCC3)c2c1 (single isomer, unassigned) [Example 220, 2-(Dimethyl-1,2-oxazol-4-yl)-9-[(4-fluorophenyl)(oxan-4-yl)methyl]-7-(2-hydroxypropan-2-yl)-9H-carbazole-4-carboxamide]"
7,< 50 nM,"Cc1noc(C)c1-c1cc(C(N)=O)c2c3ccc(C(C)(C)O)c(F)c3n(C(c3ccc(F)cc3)C3CCOCC3)c2c1 (single isomer, unassigned) [Example 224, 2-(Dimethyl-1,2-oxazol-4-yl)-8-fluoro-9-[(4-fluorophenyl)(oxan-4-yl)methyl]-7-(2-hydroxypropan-2-yl)-9H-carbazole-4-carboxamide]"
8,< 50 nM,"Cc1noc(C)c1-c1cc(C(N)=O)c2c3ccc(C(C)(C)O)c(F)c3n(C(c3ccccc3)C3CCC(F)(F)CC3)c2c1 (single isomer, unassigned) [Example 227, 9-[(4,4-difluorocyclohexyl)(phenyl)methyl]-2-(dimethyl-1,2-oxazol-4-yl)-8-fluoro-7-(2-hydroxypropan-2-yl)-9H-carbazole-4-carboxamide]"
9,< 50 nM,"Cc1noc(C)c1-c1cc(C(N)=O)c2c3ccc(C(C)(C)O)c(F)c3n(C(CCC(F)(F)F)c3ccccc3)c2c1 (single isomer, unassigned) [Example 231, 2-(dimethyl-1,2-oxazol-4-yl)-8-fluoro-7-(2-hydroxypropan-2-yl)-9-[4,4,4-trifluoro-1-phenylbutyl]-9H-carbazole-4-carboxamide]"
10,< 500 nM,"CCn1c2ccc(C(=O)N3C[C@@H](C)O[C@@H](C)C3)cc2c2ccc(-c3c(C)noc3C)cc21 [Example 2, 2-(3,5-dimethyl-4-isoxazolyl)-6-((cis-2,6-dimethyl-4-morpholinyl)carbonyl)-9-ethyl-9H-carbazole]"
11,< 500 nM,CCCn1c2ccc(C(=O)N3CC(C)OC(C)C3)cc2c2ccc(-c3c(C)noc3C)cc21 (centres unmarked) [Example 3]
12,< 500 nM,Cc1noc(C)c1-c1ccc2c3cc(C(=O)N4CC(C)OC(C)C4)ccc3n(CC(C)C)c2c1 (centres unmarked) [Example 4]
13,< 500 nM,COCCn1c2ccc(C(=O)N3CC(C)OC(C)C3)cc2c2ccc(-c3c(C)noc3C)cc21 (centres unmarked) [Example 8]
14,< 50 nM,Cc1noc(C)c1-c1ccc2c3cc(C(=O)N4CC(C)OC(C)C4)ccc3n(Cc3ccccc3)c2c1 (centres unmarked) [Example 9]
15,< 500 nM,Cc1noc(C)c1-c1ccc2c3cc(C(=O)N4CC(C)OC(C)C4)ccc3n(Cc3ccc(Cl)cc3)c2c1 (centres unmarked) [Example 12]
16,< 500 nM,COc1cccc(Cn2c3ccc(C(=O)N4CC(C)OC(C)C4)cc3c3ccc(-c4c(C)noc4C)cc32)c1 (centres unmarked) [Example 14]
17,< 500 nM,Cc1noc(C)c1-c1ccc2c3cc(C(=O)N4CC(C)OC(C)C4)ccc3n(Cc3cccc(F)c3)c2c1 (centres unmarked) [Example 17]

# Second part, the compound before the results:
row,SMILES,IC50
1,"Cc1noc(C)c1-c1cc(C(N)=O)c2c3cc(C(=O)N4CC(F)(F)C4)ccc3n(C(C)c3ccccc3)c2c1 (racemic) [Example 96, 6-((3,3-difluoro-1-azetidinyl)carbonyl)-2-(3,5-dimethyl-4-isoxazolyl)-9-(1-phenylethyl)-9H-carbazole-4-carboxamide]",< 50 nM
2,"Cc1noc(C)c1-c1cc(C(N)=O)c2c3cc(C(=O)N4CC(F)(F)C4)ccc3n(C(C)c3ccccc3)c2c1 (single isomer, unassigned) [Example 98, 6-((3,3-difluoro-1-azetidinyl)carbonyl)-2-(3,5-dimethyl-4-isoxazolyl)-9-(1-phenylethyl)-9H-carbazole-4-carboxamide]",< 50 nM
3,"COc1ccc2c(c1)c1c(C(N)=O)cc(-c3c(C)noc3C)cc1n2C(C)c1ccccc1 (single isomer, unassigned) [Example 179, 2-(3,5-dimethyl-4-isoxazolyl)-6-methoxy-9-(1-phenylethyl)-9H-carbazole-4-carboxamide]",< 50 nM
4,"Cc1noc(C)c1-c1cc(C(N)=O)c2c3ccc(C(C)(C)O)cc3n(C(c3ccc(F)cc3)C3CCOCC3)c2c1 (single isomer, unassigned) [Example 219, 2-(Dimethyl-1,2-oxazol-4-yl)-9-[(4-fluorophenyl)(oxan-4-yl)methyl]-7-(2-hydroxypropan-2-yl)-9H-carbazole-4-carboxamide]",< 50 nM
5,"Cc1noc(C)c1-c1cc(C(N)=O)c2c3ccc(C(C)(C)O)cc3n(C(c3ccccc3)C3(F)CCC3)c2c1 (single isomer, unassigned) [Example 221, 2-(Dimethyl-1,2-oxazol-4-yl)-9-[(1-fluorocyclobutyl)(phenyl)methyl]-7-(2-hydroxypropan-2-yl)-9H-carbazole-4-carboxamide]",< 50 nM
6,"Cc1noc(C)c1-c1cc(C(N)=O)c2c3ccc(C(C)(C)O)cc3n(C(c3ccccc3)C3(F)CCC3)c2c1 (single isomer, unassigned) [Example 222, 2-(Dimethyl-1,2-oxazol-4-yl)-9-[(1-fluorocyclobutyl)(phenyl)methyl]-7-(2-hydroxypropan-2-yl)-9H-carbazole-4-carboxamide]",< 50 nM
7,"Cc1noc(C)c1-c1cc(C(N)=O)c2c3ccc(C(C)(C)O)c(F)c3n(C(c3ccc(F)cc3)C3CCOCC3)c2c1 (single isomer, unassigned) [Example 223, 2-(Dimethyl-1,2-oxazol-4-yl)-8-fluoro-9-[(4-fluorophenyl)(oxan-4-yl)methyl]-7-(2-hydroxypropan-2-yl)-9H-carbazole-4-carboxamide]",< 50 nM
8,"Cc1noc(C)c1-c1cc(C(N)=O)c2c3ccc(C(C)(C)O)c(F)c3n(C(c3ccccc3)C3CCC(F)(F)CC3)c2c1 (single isomer, unassigned) [Example 226, 9-[(4,4-difluorocyclohexyl)(phenyl)methyl]-2-(dimethyl-1,2-oxazol-4-yl)-8-fluoro-7-(2-hydroxypropan-2-yl)-9H-carbazole-4-carboxamide]",< 50 nM
9,"Cc1noc(C)c1-c1cc(C(N)=O)c2c3ccc(C(C)(C)O)c(F)c3n(C(CCC(F)(F)F)c3ccccc3)c2c1 (single isomer, unassigned) [Example 230, 2-(dimethyl-1,2-oxazol-4-yl)-8-fluoro-7-(2-hydroxypropan-2-yl)-9-[4,4,4-trifluoro-1-phenylbutyl]-9H-carbazole-4-carboxamide]",< 50 nM
10,"Cc1nnn(C)c1-c1cc(C(N)=O)c2c3ccc(C(C)(C)O)cc3n(C(c3ccccc3)C3CCOCC3)c2c1 (single isomer, unassigned) [Example 232, 2-(1,4-Dimethyl-1H-1,2,3-triazol-5-yl)-7-(2-hydroxypropan-2-yl)-9-(phenyl(tetrahydro-2H-pyran-4-yl)methyl)-9H-carbazole-4-carboxamide]",< 50 nM
11,"Cc1nnn(C)c1-c1cc(C(N)=O)c2c3ccc(C(C)(C)O)cc3n(C(c3ccccc3)C3CCOCC3)c2c1 (single isomer, unassigned) [Example 233, 2-(1,4-Dimethyl-1H-1,2,3-triazol-5-yl)-7-(2-hydroxypropan-2-yl)-9-(phenyl(tetrahydro-2H-pyran-4-yl)methyl)-9H-carbazole-4-carboxamide]",< 50 nM
12,"Cc1noc(C)c1-c1ccc2c(c1)[nH]c1ccc(C(=O)N3CCOCC3)cc12 [Example 1, 2-(3,5-dimethyl-4-isoxazolyl)-6-(4-morpholinylcarbonyl)-9H-carbazole]",< 500 nM
13,Cc1noc(C)c1-c1ccc2c3cc(C(=O)N4CC(C)OC(C)C4)ccc3n(CC3CC3)c2c1 (centres unmarked) [Example 5],< 500 nM
14,Cc1noc(C)c1-c1ccc2c3cc(C(=O)N4CC(C)OC(C)C4)ccc3n(CCF)c2c1 (centres unmarked) [Example 6],< 500 nM
15,Cc1noc(C)c1-c1ccc2c3cc(C(=O)N4CC(C)OC(C)C4)ccc3n(CC(F)F)c2c1 (centres unmarked) [Example 7],< 500 nM
16,Cc1noc(C)c1-c1ccc2c3cc(C(=O)N4CC(C)OC(C)C4)ccc3n(Cc3ccccc3Cl)c2c1 (centres unmarked) [Example 11],< 500 nM
17,Cc1noc(C)c1-c1ccc2c3cc(C(=O)N4CC(C)OC(C)C4)ccc3n(Cc3cccc(Cl)c3)c2c1 (centres unmarked) [Example 13],< 500 nM
18,COc1ccccc1Cn1c2ccc(C(=O)N3CC(C)OC(C)C3)cc2c2ccc(-c3c(C)noc3C)cc21 (centres unmarked) [Example 15],< 500 nM
19,Cc1noc(C)c1-c1ccc2c3cc(C(=O)N4CC(C)OC(C)C4)ccc3n(Cc3ccccc3F)c2c1 (centres unmarked) [Example 16],< 7500 nM
20,Cc1noc(C)c1-c1ccc2c3cc(C(=O)N4CC(C)OC(C)C4)ccc3n(Cc3ccc(F)cc3)c2c1 (centres unmarked) [Example 18],< 500 nM
21,Cc1ccccc1Cn1c2ccc(C(=O)N3CC(C)OC(C)C3)cc2c2ccc(-c3c(C)noc3C)cc21 (centres unmarked) [Example 19],< 500 nM
